Tests used:
CYP11B2 [1] = biological target: T1, CYP11B2 (Homo sapiens (Human), UniProt P19099); details: patients with primary aldosteronism, oral; cited from earlier work
[2] = test system: rat model of chronic kidney disease; details: cited from earlier work; for cardiac and aortic medial hypertrophy / renal effects (albuminuria, azotemia, renovascular hypertrophy, glomerular injury, PAI-1 and osteopontin mRNA, tubulointerstitial fibrosis): angiotensin II and high salt treatment; for angiotensin II and salt-stimulated PAI-1 mRNA expression: aorta and heart
CYP11B2 [3] = biological target: T1, CYP11B2; experiment: G-402 cellular enzyme assay, human CYP11B2 (aldosterone release); assay type: cell-based; details: G-402 cells, 1 μM Deoxycorticosterone
Description: (§1) Herein we identified the use of the G-402 cell line as a host cell to ectopically express (transiently or stably) enzymes of the CYP11 family. Specifically we developed stable G-402 cells expressing ectopically human CYP11B1, human CYP11B2, human CYP11A1, cynmolgus CYP11B1 or cynomolgus CYP11B2 enzyme activity. Importantly the identified cell line G-402 expresses co-factors (adrenodoxin and adrenodoxin reductase) important for the activity of the CYP11 family and no relevant enzyme activity of the CYP11 family (in comparison to H295R cells) was detected in these cells. Therefore the G-402 cell line is uniquely suited as a host cell for the ectopic expression of enzymes from the CYP11 family.
(§2) G-402 cells can be obtained from ATCC (CRL-1440) and were originally derived from a renal leiomyoblastoma.
(§3) The expression plasmids contains the ORF for either human/cyno CYP11B1 or CYP11B2 under the control of a suitable promoter (CMV-promoter) and a suitable resistance marker (neomycin). Using standard techniques the expression plasmid is transfected into G-402 cells and these cells are then selected for expressing the given resistance markers. Individual cell-clones are then selected and assessed for displaying the desired enzymatic activity using 11-Deoxycorticosterone (Cyp11B2) or 11-Deoxycortisol (Cyp11B1) as a substrate.
(§4) G-402 cells expressing CYP11 constructs were established as described above and maintained in McCoy's 5a Medium Modified, ATCC Catalog No. 30-2007 containing 10% FCS and 400 μg/ml G418 (Geneticin) at 37° C. under an atmosphere of 5% CO2/95% air. Cellular enzyme assays were performed in DMEM/F12 medium containing 2.5% charcoal treated FCS and appropriate concentration of substrate (0.3-10 uM 11-Deoxycorticosterone, 11-Deoxycortisol or Corticosterone). For assaying enzymatic activity, cells were plated onto 96 well plates and incubated for 16 h. An aliquot of the supernatant is then transferred and analyzed for the concentration of the expected product (Aldosterone for CYP11B2; Cortisol for CYP11B1). The concentrations of these steroids can be determined using HTRF assays from CisBio analyzing either Aldosterone or Cortisol.
(§5) Inhibition of the release of produced steroids can be used as a measure of the respective enzyme inhibition by test compounds added during the cellular enzyme assay. The dose dependent inhibition of enzymatic activity by a compound is calculated by means of plotting added inhibitor concentrations (x-axes) vs. measured steroid/product level (y-axes). The inhibition is then calculated by fitting the following 4-parameter sigmoidal function (Morgan-Mercer-Flodin (MMF) model) to the raw data points using the least squares method:
(§6) [formula] wherein, A is the maximum y value, B is the EC50 factor determined using XLFit, C is the minimum y value and D is the slope value.
(§7) EC50 values for compounds claimed herein were tested with the G402-based assay system described. Cyp11B2 enzyme activity was tested in presence of 1 μM Deoxycorticosterone and variable amounts of inhibitors; Cyp11B1 enzyme activity was tested in presence of 1 μM Deoxycortisol and variable amounts of inhibitors.

human CYP11B1 = human CYP11B1 (Homo sapiens (Human), UniProt P15538); experiment: G-402 cellular enzyme assay, human CYP11B1 (cortisol release); assay type: cell-based; details: G-402 cells, 1 μM Deoxycortisol
Sequence of human CYP11B1 (P15538 25-503): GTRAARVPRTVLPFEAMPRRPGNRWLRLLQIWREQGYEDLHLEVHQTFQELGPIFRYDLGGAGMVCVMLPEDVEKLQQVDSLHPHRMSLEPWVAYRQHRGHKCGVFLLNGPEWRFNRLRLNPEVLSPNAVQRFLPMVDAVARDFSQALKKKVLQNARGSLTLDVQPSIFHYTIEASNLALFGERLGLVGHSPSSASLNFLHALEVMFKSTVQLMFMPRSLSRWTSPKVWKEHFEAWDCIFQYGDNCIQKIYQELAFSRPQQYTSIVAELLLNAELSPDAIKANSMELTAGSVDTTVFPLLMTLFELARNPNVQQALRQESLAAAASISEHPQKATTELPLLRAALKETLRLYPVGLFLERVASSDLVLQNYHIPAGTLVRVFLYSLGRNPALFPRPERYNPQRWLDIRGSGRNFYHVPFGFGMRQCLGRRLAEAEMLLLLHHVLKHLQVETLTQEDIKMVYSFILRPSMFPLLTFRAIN
Description: as §1, §2, §3, §4, §5, §6, §7

[4] = test system: rats with experimental heart failure; details: rat, in vivo; cited from earlier work

T1 sequence (P19099 25-503): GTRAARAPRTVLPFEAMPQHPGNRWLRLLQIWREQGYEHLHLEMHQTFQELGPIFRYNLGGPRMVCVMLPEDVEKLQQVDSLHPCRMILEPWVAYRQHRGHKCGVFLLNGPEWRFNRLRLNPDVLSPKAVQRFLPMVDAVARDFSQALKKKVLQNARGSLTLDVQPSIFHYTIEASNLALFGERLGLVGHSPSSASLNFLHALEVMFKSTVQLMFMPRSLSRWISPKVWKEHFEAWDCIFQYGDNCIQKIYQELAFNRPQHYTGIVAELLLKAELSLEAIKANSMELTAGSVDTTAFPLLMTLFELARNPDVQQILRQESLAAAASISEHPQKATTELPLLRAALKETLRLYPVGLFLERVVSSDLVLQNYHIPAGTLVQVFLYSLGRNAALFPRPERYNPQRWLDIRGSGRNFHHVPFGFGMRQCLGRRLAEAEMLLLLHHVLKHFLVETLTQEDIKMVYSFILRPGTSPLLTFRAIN

SMILES | EC50 (CYP11B2 [3]) | EC50 (human CYP11B1) | further results
N#Cc1ccc([C@H]2CCc3cncn32)c(F)c1 [LCI699] |  |  | blood pressure (CYP11B2 [1]): mildly decreased; circulating aldosterone levels (CYP11B2 [1]): significantly lower; hypokalemia (CYP11B2 [1]): corrected; selectivity (effects on the glucocorticoid axis) (CYP11B2 [1]): poor selectivity
CC(=O)S[C@@H]1CC2=CC(=O)CC[C@]2(C)[C@H]2CC[C@@]3(C)[C@@H](CC[C@@]34CCC(=O)O4)[C@H]12 [spironolactone] |  |  | cardiac and aortic medial hypertrophy [2]: attenuated; renal effects (albuminuria, azotemia, renovascular hypertrophy, glomerular injury, PAI-1 and osteopontin mRNA, tubulointerstitial fibrosis) [2]: prevented; angiotensin II and salt-stimulated PAI-1 mRNA expression [2]: enhanced; aldosterone ([2]; at 4 and 8 weeks of treatment): increased
CN(c1cncc(N2C(=O)c3ccc(Cl)cc3C2(C)C)c1)C1CCN(S(C)(=O)=O)CC1 [Example 21, 5-Chloro-3,3-dimethyl-2-[5-[methyl-(1-methylsulfonylpiperidin-4-yl)amino]pyridin-3-yl]isoindol-1-one] | 3 nM | 3 nM | 
CC(C)S(=O)(=O)N1CC(Nc2cncc(N3CCc4cc(Cl)ccc4C3=O)c2)C1 [Example 31, 6-Chloro-2-[5-[(1-propan-2-ylsulfonylazetidin-3-yl)amino]pyridin-3-yl]-3,4-dihydroisoquinolin-1-one] | 34 nM | 3840 nM | 
CC(C)S(=O)(=O)N1CCCC(Nc2cncc(N3C(=O)c4ccc(Cl)cc4C3(C)C)c2)C1 (single isomer, unassigned) [Example 27, 5-Chloro-3,3-dimethyl-2-[5-[[(3S or 3R)-1-propan-2-ylsulfonylpiperidin-3-yl]amino]pyridin-3-yl]isoindol-1-one] | 1510 nM | > 30000 nM | 
CC(C)S(=O)(=O)N1CCCC(Nc2cncc(N3C(=O)c4ccc(Cl)cc4C3(C)C)c2)C1 (single isomer, unassigned) [Example 26, 5-Chloro-3,3-dimethyl-2-[5-[[(3R or 3S)-1-propan-2-ylsulfonylpiperidin-3-yl]amino]pyridin-3-yl]isoindol-1-one] | 2360 nM | > 30000 nM | 
CCS(=O)(=O)N1CC(Nc2cncc(N3C(=O)c4ccc(Cl)cc4[C@@H]3C)c2)C1 (single isomer, unassigned) [Example 42, (3S or 3R)-5-Chloro-2-[5-[(1-ethylsulfonylazetidin-3-yl)amino]-3-pyridyl]-3-methyl-isoindolin-1-one] | 12 nM | 1070 nM | 
CCS(=O)(=O)N1CCC(Nc2cncc(N3C(=O)c4ccc(C#N)cc4C3(C)C)c2)CC1 [Example 43, 2-[5-[(1-Ethylsulfonyl-4-piperidyl)amino]-3-pyridyl]-3,3-dimethyl-1-oxo-isoindoline-5-carbonitrile] | 13 nM | 4570 nM | 
CCC(=O)N1CC(Nc2cncc(N3C(=O)c4ccc(Cl)cc4[C@H]3C)c2)C1 (single isomer, unassigned) [Example 39, (3R or 3S)-5-Chloro-3-methyl-2-[5-[(1-propanoylazetidin-3-yl)amino]-3-pyridyl]isoindolin-1-one] | 92 nM | 10800 nM | 
CN(c1cncc(N2C(=O)c3ccc(Cl)cc3C2(C)C)c1)C1CN(S(C)(=O)=O)C1 [Example 11, 5-Chloro-3,3-dimethyl-2-[5-[methyl-(1-methylsulfonylazetidin-3-yl)amino]pyridin-3-yl]isoindol-1-one] | 3 nM | 50 nM | 
CCS(=O)(=O)N1CCC(N(C)c2cncc(N3C(=O)c4ccc(Cl)cc4C3(C)C)c2)CC1 [Example 20, 5-Chloro-2-[5-[(1-ethylsulfonylpiperidin-4-yl)-methylamino]pyridin-3-yl]-3,3-dimethylisoindol-1-one] | 0.8 nM | 0.4 nM | 
CCC(=O)N1CC2(CC(Nc3cncc(N4C(=O)c5ccc(Cl)cc5C4(C)C)c3)C2)C1 [Example 36, 5-Chloro-3,3-dimethyl-2-[5-[(2-propanoyl-2-azaspiro[3.3]heptan-6-yl)amino]pyridin-3-yl]isoindol-1-one] | 44 nM | 15400 nM | 
CCC(=O)N1CC(Nc2cncc(N3C(=O)c4ccc(Cl)cc4C3(C)C)c2)C1 [Example 9, 5-Chloro-3,3-dimethyl-2-[5-[(1-propanoylazetidin-3-yl)amino]pyridin-3-yl]isoindol-1-one] | 10 nM | 2560 nM | 
N#Cc1ccc([C@H]2CCCc3cncn32)cc1 [FAD286] |  |  | cardiac and aortic medial hypertrophy [2]: attenuated; renal effects (albuminuria, azotemia, renovascular hypertrophy, glomerular injury, PAI-1 and osteopontin mRNA, tubulointerstitial fibrosis) [2]: prevented; angiotensin II and salt-stimulated PAI-1 mRNA expression [2]: not; plasma aldosterone ([2]; following 4 weeks of treatment): reduced; blood pressure and cardiovascular function and structure [4]: improved; kidney function and morphology [4]: improve
CC(C)S(=O)(=O)N1CCC(N(C)c2cncc(N3C(=O)c4ccc(Cl)cc4C3(C)C)c2)C1 (single isomer, unassigned) [Example 16, 5-Chloro-3,3-dimethyl-2-[5-[methyl-[(3R or 3S)-1-propan-2-ylsulfonylpyrrolidin-3-yl]amino]pyridin-3-yl]isoindol-1-one] | 0.5 nM | 117 nM | 

The next lines start with results.

EC50 (CYP11B2 [3]) | EC50 (human CYP11B1) | SMILES | further results
12 nM | 552 nM | CC(=O)N1CC(N(C)c2cncc(N3C(=O)c4ccc(Cl)cc4C3(C)C)c2)C1 [Example 2, 2-[5-[(1-Acetylazetidin-3-yl)-methylamino]pyridin-3-yl]-5-chloro-3,3-dimethylisoindol-1-one] | 
149 nM | 27200 nM | CC1(C)c2cc(Cl)ccc2C(=O)N1c1cncc(NC2CCCN(S(C)(=O)=O)C2)c1 (single isomer, unassigned) [Example 22, 5-Chloro-3,3-dimethyl-2-[5-[[(3R or 3S)-1-methylsulfonylpiperidin-3-yl]amino]pyridin-3-yl]isoindol-1-one] | 
38 nM | 5840 nM | CC(=O)N1CC(Nc2cncc(N3C(=O)c4ccc(Cl)cc4C3(C)C)c2)C1 [Example 1, 2-[5-[(1-Acetylazetidin-3-yl)amino]pyridin-3-yl]-5-chloro-3,3-dimethylisoindol-1-one] | 
0.5 nM | 39 nM | CCS(=O)(=O)N1CC(N(C)c2cncc(N3C(=O)c4ccc(Cl)cc4C3(C)C)c2)C1 [Example 10, 5-Chloro-2-[5-[(1-ethylsulfonylazetidin-3-yl)-methylamino]pyridin-3-yl]-3,3-dimethylisoindol-1-one] | 
0.5 nM | 37 nM | CC(C)S(=O)(=O)N1CC(N(C)c2cncc(N3C(=O)c4ccc(Cl)cc4C3(C)C)c2)C1 [Example 13, 5-Chloro-3,3-dimethyl-2-[5-[methyl-(1-propan-2-ylsulfonylazetidin-3-yl)amino]pyridin-3-yl]isoindol-1-one] | 
178 nM | 23700 nM | CCC(=O)N1CC(Nc2cncc(N3CCc4cc(Cl)ccc4C3=O)c2)C1 [Example 29, 6-Chloro-2-[5-[(1-propanoylazetidin-3-yl)amino]pyridin-3-yl]-3,4-dihydroisoquinolin-1-one] | 
10 nM | 7370 nM | CCS(=O)(=O)N1CC2(CC(Nc3cncc(N4C(=O)c5ccc(Cl)cc5C4(C)C)c3)C2)C1 [Example 37, 5-Chloro-2-[5-[(2-ethylsulfonyl-2-azaspiro[3.3]heptan-6-yl)amino]pyridin-3-yl]-3,3-dimethylisoindol-1-one] | 
11 nM | 8240 nM | CC(C)S(=O)(=O)N1CC2(CC(Nc3cncc(N4C(=O)c5ccc(Cl)cc5C4(C)C)c3)C2)C1 [Example 38, 5-Chloro-3,3-dimethyl-2-[5-[(2-propan-2-ylsulfonyl-2-azaspiro[3.3]heptan-6-yl)amino]pyridin-3-yl]isoindol-1-one] | 
